Measurements published in BigSolDB 2.1.

**Q.** With `C[C@@H]1O[C@@H](O[C@H]2[C@H](Oc3cc(O)c(C(=O)CCc4ccc(O)cc4)c(O)c3)O[C@H](CO)[C@@H](O)[C@@H]2O)[C@H](O)[C@H](O)[C@H]1O` as the molecule, how does the solubility (mole fraction) (in ethyl acetate, 298.15 K) read?
**A.** The solubility (mole fraction) was 0.00031.

**Q.** What about the solubility (mole fraction) (in ethyl acetate, 308.15 K) of the same molecule?
**A.** Its solubility (mole fraction) is 0.000369.

**Q.** And the solubility (mole fraction) (in ethyl acetate, 318.15 K)?
**A.** The solubility (mole fraction) was 0.000491.

**Q.** What about the solubility (mole fraction) (in ethyl acetate, 328.15 K) of the same molecule?
**A.** Its solubility (mole fraction) is 0.000668.

**Q.** What about the solubility (mole fraction) (in ethyl acetate, 338.15 K) of the same molecule?
**A.** Its solubility (mole fraction) is 0.000776.

**Q.** What about the solubility (mole fraction) (in water, 298.15 K) of the same molecule?
**A.** Its solubility (mole fraction) is 2.13e-05.

**Q.** What about the solubility (mole fraction) (in water, 308.15 K) of the same molecule?
**A.** The solubility (mole fraction) was 3.78e-05.

**Q.** And the solubility (mole fraction) (in water, 318.15 K)?
**A.** The solubility (mole fraction) was 7.12e-05.

**Q.** What about the solubility (mole fraction) (in water, 328.15 K) of the same molecule?
**A.** The solubility (mole fraction) was 0.000166.

**Q.** What about the solubility (mole fraction) (in water, 338.15 K) of the same molecule?
**A.** The solubility (mole fraction) was 0.000375.
